Values after ≈ are worked out from the molar mass of the structure shown. Residues, ends and D or L forms follow the SMILES beside them.
Test system: P388
Test: Tested for inhibitory activity against p-388 lymphocytic leukemia cells
Assay type: functional, cell-based
Details: Mus musculus

- IC50: 2.5 µg/mL (≈ 3.67 µM)
Structure (SMILES): CC(C)C[C@@H]1NC(=O)[C@H](Cc2ccccc2)NC(=O)[C@H]([C@@H](C)O)NC(=O)CNC(=O)[C@H](C(C)C)NC(=O)[C@H](Cc2ccc(O)cc2)NC1=O (HELM PEPTIDE1{F.L.Y.V.G.T}$PEPTIDE1,PEPTIDE1,1:R1-6:R2$$$V2.0)
